# Patent US7202280B2, “Methods for the treatment and prevention of pancreatitis and for induction of liver regeneration” (priority 2002, dated 2007)
# Columns and labels:
# SSAT transgenic rats = assay: Stability of the analogues in the liver of SSAT transgenic rats without or with MDL72527 (hepatic polyamine pools); type: in vivo, rat; settings: MDL72527 50 mg/kg i.p. twice
# Description: FIGS. 8A-8D. Hepatic polyamine pools in SSAT transgenic rats treated with methylated polyamine analogues without or with MDL72527. The rats were injected twice with MDL72527 (50 mg/kg i.p.) at 16-h interval. The polyamine analogues (25 mg/kg i.p.) were injected 2 and 8 h later. The animals were sacrificed 24 h after the last MDL72527 injection. There were three to four animals in each group. Put, putrescine; […] Spd, spermidine; Me-Spd, α-methylspermidine; […] The production of transgenic Wistar rats (UKUR30) and mice (UKU181) harboring metallothionein-SSAT fusion gene (Suppola, […]., Porter, C. W., and Jänne, J. (1999) Biochem. […] (2000) Proc. Natl. Acad. Sci. U.S.A. 97, 8290-8295; Lukkarinen, […]., and Alhonen, L. (1997) Stroke 28, 639-645). Partial hepatectomy was carried out according to the original method of Higgins and Anderson (Higgins, G. H., and Anderson, R. M. (1931) Arch. Pathol. 12, 186-202). Treatments before partial hepatectomy and the determination of DNA synthesis were carried out as in ([…]., Suppola, […]., and […]. Biol. Chem. 277, 39867-39872). Transgenic 10 weeks old male rats were injected twice with MDL72527 (50 mg/kg i.p.) at 16-h interval to inactivate PAO according to (Bolkenius, F. N., Bey, P., and Seiler, N. (1985) Biochim. Biophys. […] An aliquot of the homogenates was used for the polyamine assays. The homogenates were centrifuged (at 13 000×g, for 30 min, at 4° C.) and the supernatants were used for the enzyme activity assays. The Institutional Animal Care and Use Committee of the University of Kuopio and by the Provincial Government approved animal experiments. […] Merck (Darmstadt, Germany).
# PAO = assay: Hepatic PAO activity in SSAT transgenic rats after polyamine analogues without or with MDL72527; type: in vivo, rat; settings: MDL72527 50 mg/kg i.p. twice, alone or in combination with the analogues
# Description: FIGS. 9A–9B. Effect of polyamine analogues without or with MDL72527 on hepatic SSAT (FIG. 9A) and PAO (FIG. 9B) activities in SSAT transgenic rats. The rats were treated with the drugs as described in the legend for FIGS. 8A–8D. There were three to four animals in each group.
# The production of transgenic Wistar rats (UKUR30) and mice (UKU181) harboring metallothionein-SSAT fusion gene (Suppola, S., Pietilä, M., Parkkinen, J. J., Korhonen, V. P., Alhonen, L., Halmekytö, M., Porter, C. W., and Jänne, J. (1999) Biochem. J. 338, 311–316) has been described earlier (Alhonen, L., Parkkinen, J. J., Keinänen, T., Sinervirta, R., Herzig, K. H., and Jänne, J. (2000) Proc. Natl. Acad. Sci. U.S.A. 97, 8290–8295; Lukkarinen, J., Gröhn, O., Sinervirta, R., Järvinen, A., Kauppinen, R. A., Jänne, J., and Alhonen, L. (1997) Stroke 28, 639–645). Partial hepatectomy was carried out according to the original method of Higgins and Anderson (Higgins, G. H., and Anderson, R. M. (1931) Arch. Pathol. 12, 186–202). […]
# PAO activity was measured to verify the effectiveness of MDL72527 treatment and to determine whether the analogues have any effect on its activity. […]
smiles,measurement,setting,value
"C=C=CCNCCCCNCC=C=C [MDL72527, reference compound]",hepatic putrescine and N^1-acetylspermidine pools,SSAT transgenic rats,greatly reduced putrescine content and increased the pool of N^1-acetylspermidine
same,hepatic PAO activity,PAO,virtually completely inhibited PAO activity
